This is an account of results in patent US12213969B2, “2-spiro-5- and 6-hydroxamic acid indanes as HDAC inhibitors” (Valo Health, Inc., priority 2016, dated 2025).

In this test the target is T1, Full length human recombinant HDAC6 protein (Homo sapiens, UniProt Q9UBN7).
T1 construct: made in house
T1 sequence (Q9UBN7 1-1215): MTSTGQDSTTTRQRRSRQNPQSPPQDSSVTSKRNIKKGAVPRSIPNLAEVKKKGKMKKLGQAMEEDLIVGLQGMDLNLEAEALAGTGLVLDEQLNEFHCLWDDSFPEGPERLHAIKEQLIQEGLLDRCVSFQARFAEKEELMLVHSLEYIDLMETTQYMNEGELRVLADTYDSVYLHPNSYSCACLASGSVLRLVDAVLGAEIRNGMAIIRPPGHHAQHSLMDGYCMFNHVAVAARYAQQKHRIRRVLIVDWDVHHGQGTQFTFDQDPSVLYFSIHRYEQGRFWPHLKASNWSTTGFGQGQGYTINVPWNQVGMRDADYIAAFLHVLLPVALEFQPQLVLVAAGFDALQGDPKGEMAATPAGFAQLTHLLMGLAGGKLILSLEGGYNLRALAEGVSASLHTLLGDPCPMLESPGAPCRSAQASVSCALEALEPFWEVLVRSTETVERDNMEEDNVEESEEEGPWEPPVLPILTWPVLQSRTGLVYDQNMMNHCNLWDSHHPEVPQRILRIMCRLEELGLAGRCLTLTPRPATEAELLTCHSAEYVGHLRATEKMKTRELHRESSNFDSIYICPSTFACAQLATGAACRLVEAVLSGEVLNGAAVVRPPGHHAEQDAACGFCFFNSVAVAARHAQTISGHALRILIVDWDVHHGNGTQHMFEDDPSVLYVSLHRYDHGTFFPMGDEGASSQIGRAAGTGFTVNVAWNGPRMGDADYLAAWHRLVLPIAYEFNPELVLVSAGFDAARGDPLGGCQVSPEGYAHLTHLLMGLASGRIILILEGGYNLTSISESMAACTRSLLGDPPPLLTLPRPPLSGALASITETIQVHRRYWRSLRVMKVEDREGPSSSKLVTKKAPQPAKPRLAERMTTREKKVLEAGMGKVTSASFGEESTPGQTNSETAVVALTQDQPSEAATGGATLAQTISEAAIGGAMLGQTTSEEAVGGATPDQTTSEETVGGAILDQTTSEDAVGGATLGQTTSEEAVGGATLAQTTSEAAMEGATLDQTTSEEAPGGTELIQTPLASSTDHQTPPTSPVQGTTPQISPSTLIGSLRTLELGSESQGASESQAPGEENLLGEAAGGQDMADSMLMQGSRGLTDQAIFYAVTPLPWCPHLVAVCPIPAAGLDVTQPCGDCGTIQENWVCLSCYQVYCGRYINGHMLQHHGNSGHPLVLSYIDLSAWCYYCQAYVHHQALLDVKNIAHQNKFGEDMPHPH
Kind of test: In vitro histone deacetylase assay: enzymatic HDAC6 electrophoretic mobility shift assay. The format is biochemical. As to conditions: peptide substrate RHKK(Ac)-NH2 2 μM, enzyme 1 nM, 25° C., 12 concentrations; read-out: HDAC6 activity range (IC50). The method, then:
The enzymatic HDAC6 assay was performed using electrophoretic mobility shift assay. Full length human recombinant HDAC6 protein was expressed in baculoviral system and purified by affinity chromatography. The enzymatic reactions were assembled in 384 well plates in a total volume of 25 μL in a reaction buffer composing: 100 mM HEPES, pH 7.5, 25 mM KCl, 0.1% bovine serum albumin, 0.01% Triton X-100, 1% DMSO (from compounds) 2 μM of the fluorescently labeled peptide substrate and enzyme. The enzyme was added at a final concentration of 1 nM. The peptide substrate RHKK(Ac)-NH2 was used. The compounds were tested at 12 concentrations spaced by 3× dilution intervals. Negative control samples (0%-inhibition in the absence of inhibitor) and positive control samples (100%-inhibition) were assembled in replicates of four in each assay plate. The reactions were incubated at 25° C. and quenched by the addition of 45 μL of termination buffer (100 mM HEPES, pH 7.5, 0.01% Triton X-100, 0.05% SDS).
The terminated assay plates were analyzed on LabChip® 3000 microfluidic electrophoresis instrument (Perkin Elmer/Caliper Life Sciences). The fluorescence intensity of the electrophoretically separated de-acetylated product and substrate peptide was measured. Activity in each sample was determined as the product to sum ratio (PSR): P/(S+P), where P is the peak height of the product peptide and S is the peak height of the substrate peptide. Percent inhibition (Pinh) is determined using the following equation:
Pinh=(PSR0%−PSRinh)/(PSR0%−PSR100%)*100, where PSRinh is the product sum ratio in the presence of inhibitor, PSR0% is the average product sum ration in the absence of inhibitor and PSR100% is the average product sum ratio in 100%-inhibition control samples. The IC50 values of inhibitors were determined by fitting the %-inhibition curves with 4 parameter dose-response model using XLfit 4 software.
As set forth in Table-7, below, IC50 values are defined as follows: IC50≤0.01 μM (+++); IC50>0.01 μM and ≤0.05 μM (++); IC50>0.05 μM (+).

Where only a bound is given, the exact number is not on record here.

In the case of `O=C(NO)c1ccc2c(c1)C[C@]1(CCN(c3ccc(F)cc3)C1=O)C2` [Compound I-16, (S)-1′-(4-fluorophenyl)-N-hydroxy-2′-oxo-1,3-dihydrospiro[indene-2,3′-pyrrolidine]-5-carboxamide], the IC50 is 10 to 50 nM.

With `O=C(NO)c1ccc2c(c1)C[C@@]1(CCN(c3cccnc3)C1=O)C2` [Compound I-17, (R)—N-hydroxy-2′-oxo-1′-(pyridin-3-yl)-1,3-dihydrospiro[indene-2,3′-pyrrolidine]-5-carboxamide], the IC50 was ≤ 10 nM.

For the compound `O=C(NO)c1ccc2c(c1)C[C@]1(CCN(c3cccnc3)C1=O)C2` [Compound I-18, (S)—N-hydroxy-2′-oxo-1′-(pyridin-3-yl)-1,3-dihydrospiro[indene-2,3′-pyrrolidine]-5-carboxamide], the IC50 was 10 to 50 nM. Turning to `O=C(NO)c1ccc2c(c1)C[C@@]1(CCN(c3ccccn3)C1=O)C2` [Compound I-19, (R)—N-hydroxy-2′-oxo-1′-(pyridin-2-yl)-1,3-dihydrospiro[indene-2,3′-pyrrolidine]-5-carboxamide], the IC50 is 10 to 50 nM. `O=C(NO)c1ccc2c(c1)C[C@]1(CCN(c3ccccn3)C1=O)C2` [Compound I-20, (S)—N-hydroxy-2′-oxo-1′-(pyridin-2-yl)-1,3-dihydrospiro[indene-2,3′-pyrrolidine]-5-carboxamide]: the IC50 was in the range of 10 to 50 nM. As for `O=C(NO)c1ccc2c(c1)C[C@@]1(CCN(c3ccncc3)C1=O)C2` [Compound I-21, (R)—N-hydroxy-2′-oxo-1′-(pyridin-4-yl)-1,3-dihydrospiro[indene-2,3′-pyrrolidine]-5-carboxamide], the IC50 lay within 10 to 50 nM.

Consider `O=C(NO)c1ccc2c(c1)C[C@]1(CCN(c3ccncc3)C1=O)C2` [Compound I-22, (S)—N-hydroxy-2′-oxo-1′-(pyridin-4-yl)-1,3-dihydrospiro[indene-2,3′-pyrrolidine]-5-carboxamide], for which the IC50 fell in the range of 10 to 50 nM.

On to `O=C(NO)c1ccc2c(c1)C[C@@]1(CCN(Cc3cccnc3)C1=O)C2` [Compound I-23, (R)—N-hydroxy-2′-oxo-1′-(pyridin-3-ylmethyl)-1,3-dihydrospiro[indene-2,3′-pyrrolidine]-5-carboxamide], for which the IC50 lay within 10 to 50 nM. Under `CN1CC[C@]2(Cc3ccc(C(=O)NO)cc3C2)C1` [Compound I-24, (R)—N-hydroxy-1′-methyl-1,3-dihydrospiro[indene-2,3′-pyrrolidine]-5-carboxamide] stands 10 to 50 nM; under `CN1CC[C@@]2(Cc3ccc(C(=O)NO)cc3C2)C1` [Compound I-25, (S)—N-hydroxy-1′-methyl-1,3-dihydrospiro[indene-2,3′-pyrrolidine]-5-carboxamide], > 50 nM; under `O=C(NO)c1ccc2c(c1)C[C@@]1(CCN(Cc3ccccc3)C1)C2` [Compound I-26, (R)-1′-benzyl-N-hydroxy-1,3-dihydrospiro[indene-2,3′-pyrrolidine]-5-carboxamide], 10 to 50 nM. Take `O=C(NO)c1ccc2c(c1)C[C@]1(CCN(Cc3ccccc3)C1)C2` [Compound I-27, (S)-1′-benzyl-N-hydroxy-1,3-dihydrospiro[indene-2,3′-pyrrolidine]-5-carboxamide]: the IC50 lay in the range of 10 to 50 nM. As to `CC(=O)N1CC[C@]2(Cc3ccc(C(=O)NO)cc3C2)C1` [Compound I-28, (R)-1′-acetyl-N-hydroxy-1,3-dihydrospiro[indene-2,3′-pyrrolidine]-5-carboxamide], the IC50 fell in the range of 10 to 50 nM.

For the compound `CC(=O)N1CC[C@@]2(Cc3ccc(C(=O)NO)cc3C2)C1` [Compound I-29, (S)-1′-acetyl-N-hydroxy-1,3-dihydrospiro[indene-2,3′-pyrrolidine]-5-carboxamide], the IC50 lay in the range of 10 to 50 nM. For the compound `O=C(NO)c1ccc2c(c1)C[C@@]1(CCN(C(=O)c3ccccc3)C1)C2` [Compound I-30, (R)-1′-benzoyl-N-hydroxy-1,3-dihydrospiro[indene-2,3′-pyrrolidine]-5-carboxamide], the IC50 is ≤ 10 nM. On to `O=C(NO)c1ccc2c(c1)C[C@]1(CCN(C(=O)c3ccccc3)C1)C2` [Compound I-31, (S)-1′-benzoyl-N-hydroxy-1,3-dihydrospiro[indene-2,3′-pyrrolidine]-5-carboxamide], for which the IC50 is ≤ 10 nM. Under `CN1CCC[C@]2(Cc3ccc(C(=O)NO)cc3C2)C1=O` [Compound I-32, (R)—N-hydroxy-1′-methyl-2′-oxo-1,3-dihydrospiro[indene-2,3′-piperidine]-5-carboxamide] stands 10 to 50 nM; under `CN1CCC[C@@]2(Cc3ccc(C(=O)NO)cc3C2)C1=O` [Compound I-33, (S)—N-hydroxy-1′-methyl-2′-oxo-1,3-dihydrospiro[indene-2,3′-piperidine]-5-carboxamide], 10 to 50 nM; under `O=C(NO)c1ccc2c(c1)C[C@@]1(CCCN(Cc3ccccc3)C1=O)C2` [Compound I-34, (R)-1′-benzyl-N-hydroxy-2′-oxo-1,3-dihydrospiro[indene-2,3′-piperidine]-5-carboxamide], ≤ 10 nM. Under `O=C(NO)c1ccc2c(c1)C[C@]1(CCCN(Cc3ccccc3)C1=O)C2` [Compound I-35, (S)-1′-benzyl-N-hydroxy-2′-oxo-1,3-dihydrospiro[indene-2,3′-piperidine]-5-carboxamide] stands 10 to 50 nM.

As to `O=C(NO)c1ccc2c(c1)C[C@@]1(CCCN(c3ccccc3)C1=O)C2` [Compound I-36, (R)—N-hydroxy-2′-oxo-1′-phenyl-1,3-dihydrospiro[indene-2,3′-piperidine]-5-carboxamide], the IC50 was ≤ 10 nM. Under `O=C(NO)c1ccc2c(c1)C[C@]1(CCCN(c3ccccc3)C1=O)C2` [Compound I-37, (S)—N-hydroxy-2′-oxo-1′-phenyl-1,3-dihydrospiro[indene-2,3′-piperidine]-5-carboxamide] stands 10 to 50 nM.
